Data on 2 molecules can be found in BindingDB's records for doi:10.1021/jm00053a012 (Washington University, 1993).

SMILES strings stand for the structures.

The target of this test is calcium-independent phospholipase A2 (Canis familiaris). Nature of the test: Compounds were evaluated for the inhibitory activity against canine myocardial cytosolic calcium-independent phospholipase A2.

By IC50 is commonly meant the concentration needed to halve the response being measured. For the molecule `O=C1O/C(=C/I)CCC1c1cccc2ccccc12` (configuration not stated) [(E)-6-Iodomethylene-3-naphthalen-1-yl-tetrahydro-pyran-2-one], the IC50 was 30 nM. For the molecule `O=C1O/C(=C\I)CCC1c1cccc2ccccc12` (configuration not stated) [(Z)-6-(iodomethylene)-3-(naphthalen-1-yl)tetrahydro-2H-pyran-2-one], the half-inhibitory concentration (IC50) came out at 190 nM.
